The values below come from PMC4321988, “Engineering of Helicobacter pylori L-Asparaginase: Characterization of Two Functionally Distinct Groups of Mutants” (PLoS ONE, 2015).

Where two headings read alike, the source gives them in different places.

Experiment [1] has as its target T1, HpASNase (Helicobacter pylori CCUG 17874 type II L-asparaginase) (Helicobacter pylori, UniProt O25424).
T1 construct: gene ansA; recombinant, E. coli BL21(DE3) pLysS, plasmid pDC1 (pET101 D-TOPO derivative), His-tag kept (given as N-terminal), 37 kDa band, tetramer
The experiment is described as follows: glutamate dehydrogenase-coupled NADH assay, […] nm. It counts as biochemical. The following applies: 50 mM HEPES pH 7.5, 37°C.

Experiment [2] concerns the target Helicobacter pylori CCUG 17874 type II L-asparaginase T16D mutant (Helicobacter pylori CCUG 17874). Put plainly: SEC; analytical gel filtration of the purified mutant; data not shown; conditions not given.
For experiment [3], the target named is Helicobacter pylori CCUG 17874 type II L-asparaginase T95E mutant (Helicobacter pylori CCUG 17874). The description is as above.

T1 sequence (O25424 whole entry): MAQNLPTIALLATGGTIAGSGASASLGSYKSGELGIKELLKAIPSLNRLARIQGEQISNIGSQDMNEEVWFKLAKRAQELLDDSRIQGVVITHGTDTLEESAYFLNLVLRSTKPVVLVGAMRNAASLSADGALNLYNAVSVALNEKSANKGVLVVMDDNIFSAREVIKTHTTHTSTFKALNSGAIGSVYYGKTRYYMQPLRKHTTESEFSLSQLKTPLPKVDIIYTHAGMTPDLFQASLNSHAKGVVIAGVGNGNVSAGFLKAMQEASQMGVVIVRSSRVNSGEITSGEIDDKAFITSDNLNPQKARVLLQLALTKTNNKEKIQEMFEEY

`NC(=O)C[C@H](N)C(=O)O` [L-asparagine]: in experiment [1] (read-out: L-asparagine / S0.5, nH 1.0), the Km is 0.29 ± 0.03 mM.

`NC(=O)CC[C@H](N)C(=O)O` [L-glutamine]: the Km in experiment [1] (read-out: L-glutamine / S0.5, nH 2.0) was 46.4 ± 4.02 mM. As a reminder, the stoichiometry N is the number of molecules, sites or subunits per partner or assembly. In the case of “Helicobacter pylori CCUG 17874 type II L-asparaginase T16D mutant (enzyme)”, the stoichiometry N in experiment [2] was found to be 4. Consider “Helicobacter pylori CCUG 17874 type II L-asparaginase T95E mutant (enzyme)”, for which the stoichiometry N in experiment [3] was found to be 4.
